A word on the IC50: it is the concentration that inhibits the measured activity by half.

We go through three compounds from patent US9271934B2, “Water dispersible glyceryl monooleate magnetic nanoparticle formulation” (Institute of Life Sciences, priority 2009, dated 2016).

For data set [1], the system named is MCF-7 (breast cancer) cell line. Put plainly: Mitogenic (MTT) assay, antiproliferative effect in MCF-7 cells. It is filed as cell-based. As to the method: The cell culture experiments were carried out in MCF-7 (breast cancer) cell line purchased from American Type Culture Collection (ATCC, Manassas, Va.) were grown in RPMI 1640 medium (Himedia Laboratories Pvt. Ltd., Mumbai, India) supplemented with 10% fetal bovine serum (Himedia Laboratories Pvt. Ltd., Mumbai, India) and 100 μg/ml penicillin G and 100 μg/ml streptomycin (Gibco BRL, Grand island, NY) at 37° C. in a humidified and 5% CO2 atmosphere (Hera Cell, Thermo Scientific, Waltham, Mass.).
(§1) To find out the cytotoxicity of the anticancer drugs, mitogenic assay was carried out. The MCF-7 cells were seeded at 5,000 per well in 96 well plate (Corning, N.Y., USA) and kept in the incubator for 24 hours for better cell attachment. […] Glyceryl monooleate (GMO) Magnetic nanoparticles (MNPs) without drug and medium were used as respective controls. The medium was changed on 2nd and 4th days following the drug treatment; no further dose of drug was added. Viability of the cells was determined at 5th day. After the specified incubation time, 10 μl MTT (Sigma) was added, and the plates were incubated for 3 hours at 37° C. in a cell culture incubator (Hera Cell, Thermo Scientific, Waltham, Mass.), following which the intracellular formazan crystals were solubilized in dimethyl sulfoxide and the color intensity was measured at 540 nm using a microplate reader (Synergy HT, BioTek Instruments, Inc., Winooski, Vt.). The antiproliferative effect of different treatments was calculated as a percentage of cell growth with respect to respective controls.
The cell culture experiments were carried out in MCF-7 (breast cancer) cell line purchased from American Type Culture Collection (ATCC, Manassas, Va.) were grown in RPMI 1640 medium (Himedia Laboratories PVT. LTD., Mumbai, India) supplemented with 10% fetal bovine serum (Himedia Laboratories Pvt. Ltd., Mumbai, India) and 100 μg/ml penicillin G and 100 μg/ml streptomycin (Gibco BRL, Grand island, NY) at 37° C. in a humidified and 5% CO2— atmosphere (Hera Cell, Thermo Scientific, Waltham, Mass.).
as §1, with “GMO-MNPs” for “Glyceryl monooleate (GMO) Magnetic nanoparticles (MNPs)”

For data set [2], the system named is human erythrocytes. As to conditions: pluronic used as emulsifying agent for amphotericin-B; cited from earlier work.
The conditions of data set [3]: higher doses; cited from earlier work.
[4] abbreviates: MCF-7, MTT day 5, highest concentration of the range (1000 ng/ml, printed for paclitaxel).
[5] abbreviates: MCF-7, MTT day 5, lowest concentration of the range (1 ng/ml, printed for paclitaxel).

For the compound `CC(=O)O[C@H]1C(=O)[C@@]2(C)[C@H]([C@H](OC(=O)c3ccccc3)[C@]3(O)C[C@H](OC(=O)[C@H](O)[C@@H](NC(=O)c4ccccc4)c4ccccc4)C(C)=C1C3(C)C)[C@]1(OC(C)=O)CO[C@@H]1C[C@@H]2O` [paclitaxel, Paclitaxel], the cell viability percentage result in data set [1] (setting [4]) is on record as “about 30%”; in data set [1] (setting [5]), 95%.
Regarding `CO[C@H]1C[C@@H]2CC[C@@H](C)[C@@](O)(O2)C(=O)C(=O)N2CCCC[C@H]2C(=O)O[C@H]([C@H](C)C[C@@H]2CC[C@@H](O)[C@H](OC)C2)CC(=O)[C@H](C)/C=C(\C)[C@@H](O)[C@@H](OC)C(=O)[C@H](C)C[C@H](C)/C=C/C=C/C=C/1C` [rapamycin], the IC50 in data set [1] (Homo sapiens, MCF7, 120 h, MCF-7 cells, MTT assay on day 5, medium changed on days 2 and 4) came to 0.0588 µg/mL. Further, the cell viability percentage in data set [1] (setting [4]) stood at 37%; in data set [1] (setting [5]) it was 65%.
As for Pluronic F-127, in data set [2], the “concentration with detectable cell lysis of human erythrocytes” value is 16000 ng/mL. Moreover, the “effect on cholesterol and triglycerides in the blood plasma” value in data set [3] is “elevation of cholesterol and triglycerides in the blood plasma”.
